Reference: PubChem BioAssay AID1963829 (Molecular Pharmacology Branch, DTP, NCI, 2024)
Where “and” joins values, the source holds several entries; their conditions need not be identical. Equal values may be shown once.

Test system: 935938-334-R-J1-PDC complex spheroid viability
Experiment: Anticancer human tumor 935938-334-R-J1-PDC patient-derived small intestine adenocarcinoma cell line growth inhibition [POLQ]
Conditions: for viability, T/C: stronger effect = lower value
Method: Multicellular complex tumor spheroid response to Polymerase (POL) inhibitors (novobiocin, ART-558, RP6685) in combination with a variety of drugs and investigational agents in selected tumor cell lines
The POL inhibitors (novobiocin, ART-558, and RP6685) were evaluated both individually and in combination with standard of care and investigational anticancer small molecules within a complex spheroid model of solid tumors. . Complex spheroids include a stromal component modeled by human endothelial cells (HUVEC) and fibroblasts modeled by human mesenchymal stem cells (MSCs). The concentration ranges selected for each drug and investigational agent were based upon clinically achievable concentrations if the clinical Cmax of the agent was known.
Compounds. The drugs and investigational agents: novobiocin (NSC847541), ART-558 (NSC835418), RP-6685 (NSC848927), peposertib (NSC802822), ceralasertib (NSC780249), elimusertib (NSC800525), camonsertib (NSC841442), AZD-1390 (NSC803789), olaparib (NSC753686), talazoparib (NSC767125), rucaparib (NSC756644), sotorasib (NSC818433), MRTX-1133 (NSC836407), SN-38 (NSC673596), topotecan (NSC609699), epotoside (NSC141540), doxorubicin (NSC123127), gemcitabine (NSC613327), 5-fluorouracil (NSC19893), paclitaxel (NSC125973), vemurafenib (NSC761431), MSA-2 (NSC828583), SN-011 (NSC837082), adavosertib (NSC754352), prexasertib (NSC758257), carboplatin (NSC241240) and oxaliplatin (NSC266046), were obtained from the National Cancer Institute (NCI) Developmental Therapeutics Program Chemical Repository (21). The FDA-approved anticancer drug set is available from the Developmental Therapeutics Program at https://dtp.cancer.gov/organization/dscb/obtaining/. […] The stock solutions were prepared in dimethyl sulfoxide (DMSO, Sigma-Aldrich, St. Louis, MO, cat. D2650), except for the platinum compounds which were prepared in saline (Quality Biological, Gaithersburg, MD, cat. 114-055-101), at 800-fold the tested concentration and stored at -70 degrees C prior to their use. All drugs and investigational agents were tested over a range starting from a high concentration at or near the clinical Cmax and decreasing in half-log increments. If the clinical Cmax for an agent had not been determined, the highest concentration tested was 10 microM, except for SN-38, which was tested at a high concentration of 1 microM.
Cell Culture. All cells were maintained in an incubator at 37 degrees C and 5% CO2 with 95% humidity. The PDC lines were cultured according to standard operating procedures established by the NCI PDMR (https://pdmr.cancer.gov). Table 3 of the manuscript, lists the cell lines along with the number of the three cell types plated to form the mct-spheroids and media for tumor cell growth. After thawing, all PDC lines, except 997537-175-T-J1-PDC and 415267-285-R-J2-PDC, were cultured in Matrigel-coated flasks prepared with a working solution of 1X Ham's F-12 nutrient mix, without supplementation (Thermo Fisher Scientific, cat. 11765054), 100 U/mL penicillin-streptomycin (Thermo Fisher Scientific, cat. 15140122), and 2.5% Matrigel (Corning Inc., Corning, NY, cat. 354248) for the first three passages. The two PDC lines 997537-175-T-J1-PDC and 415267-285-R-J2-PDC were cultured on uncoated flasks. The 857933-349-R-J2-PDC line was cultured in 6C/Colon 1B media containing advanced DMEM/F-12 (Thermo Fisher Scientific, cat. 12634028), 10 mM HEPES (Thermo Fisher Scientific, cat. 15630080), 1X GlutaMAX supplement (Thermo Fisher Scientific, cat. 35050061), 0.1 mg/mL primocin (InvivoGen, San Diego, CA, cat. ant-pm-2), 10% defined fetal bovine serum, heat inactivated (HyClone Laboratories Inc., Logan, UT, cat. SH30070.03HI), 50% L-WRN conditioned media (ATCC, cat. CRL-3276), 1.25 mM N-Acetyl-L-cysteine (Sigma-Aldrich, cat. A9165), 10 mM nicotinamide (Sigma-Aldrich, cat. N0636), 1X B-27 supplement (Thermo Fisher Scientific, cat. 17504044), 1X N-2 supplement (Thermo Fisher Scientific, cat. […]
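Further: spheroids exposed to drugs for seven days before viability read.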
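Wherever viability, T/C is given: 100% = DMSO vehicle control wells.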

In the case of C=CCn1c(=O)c2cnc(Nc3ccc(N4CCN(C)CC4)cc3)nc2n1-c1cccc(C(C)(C)O)n1 + Cc1cccc(N(C)C(=O)C2C(O)CCN2c2nc(C)cc(C(F)(F)F)c2C#N)c1, the IC50 (curve of first compound, second compound 0.0316 µM) is reported as 591 nM, the IC50 (curve of first compound, second compound 0.1 µM) is reported as 500 nM and the IC50 (curve of first compound, second compound 0.316 µM) is reported as 513 nM. It also gave an IC50 (curve of first compound, second compound 1 µM) of 669 nM, an IC50 (curve of first compound, second compound 3.16 µM) of 595 nM and an IC50 (curve of first compound, second compound 10 µM) of 516 nM. The viability, T/C (second compound 0.0316 µM, first compound 0.00316 µM) was 86.3%, the viability, T/C (second compound 0.0316 µM, first compound 0.01 µM) was 67.3% and the viability, T/C (second compound 0.0316 µM, first compound 0.0316 µM) was 80%. It also gave a viability, T/C (second compound 0.0316 µM, first compound 0.1 µM) of 85.8%, a viability, T/C (second compound 0.0316 µM, first compound 0.316 µM) of 77.8% and a viability, T/C (second compound 0.0316 µM, first compound 1 µM) of 26.6%. It also gave a viability, T/C (second compound 0.1 µM, first compound 0.00316 µM) of 93%, a viability, T/C (second compound 0.1 µM, first compound 0.01 µM) of 87.5% and a viability, T/C (second compound 0.1 µM, first compound 0.0316 µM) of 97%. For the same compound, the viability, T/C (second compound 0.1 µM, first compound 0.1 µM) was 107%, the viability, T/C (second compound 0.1 µM, first compound 0.316 µM) was 66% and the viability, T/C (second compound 0.1 µM, first compound 1 µM) was 25.7%. For the same compound, the viability, T/C (second compound 0.316 µM, first compound 0.00316 µM) was 90.4%, the viability, T/C (second compound 0.316 µM, first compound 0.01 µM) was 110% and the viability, T/C (second compound 0.316 µM, first compound 0.0316 µM) was 83.6%. It also gave a viability, T/C (second compound 0.316 µM, first compound 0.1 µM) of 95.9%, a viability, T/C (second compound 0.316 µM, first compound 0.316 µM) of 67.8% and a viability, T/C (second compound 0.316 µM, first compound 1 µM) of 25.5%. For the same compound, the viability, T/C (second compound 1 µM, first compound 0.00316 µM) was 94.8%, the viability, T/C (second compound 1 µM, first compound 0.01 µM) was 98.6% and the viability, T/C (second compound 1 µM, first compound 0.0316 µM) was 106%. It also gave a viability, T/C (second compound 1 µM, first compound 0.1 µM) of 104%, a viability, T/C (second compound 1 µM, first compound 0.316 µM) of 92.1% and a viability, T/C (second compound 1 µM, first compound 1 µM) of 27%. The viability, T/C (second compound 3.16 µM, first compound 0.00316 µM) was 69.9%, the viability, T/C (second compound 3.16 µM, first compound 0.01 µM) was 112% and the viability, T/C (second compound 3.16 µM, first compound 0.0316 µM) was 74.9%. The viability, T/C (second compound 3.16 µM, first compound 0.1 µM) was 87.7%, the viability, T/C (second compound 3.16 µM, first compound 0.316 µM) was 78.4% and the viability, T/C (second compound 3.16 µM, first compound 1 µM) was 26.2%. It also gave a viability, T/C (second compound 10 µM, first compound 0.00316 µM) of 103%, a viability, T/C (second compound 10 µM, first compound 0.01 µM) of 101% and a viability, T/C (second compound 10 µM, first compound 0.0316 µM) of 88.7%. The viability, T/C (second compound 10 µM, first compound 0.1 µM) was 96.4%, the viability, T/C (second compound 10 µM, first compound 0.316 µM) was 72.2% and the viability, T/C (second compound 10 µM, first compound 1 µM) was 19.6%.

In the case of CNCc1ccc(-c2[nH]c3cc(F)cc4c3c2CCNC4=O)cc1, the viability, T/C (compound 0.0316 µM) is reported as 114% and 107% and 98.2%, the viability, T/C (compound 0.1 µM) is reported as 119% and 78.9% and 107% and the viability, T/C (compound 0.316 µM) is reported as 92.8% and 87.7% and 94.1%. The viability, T/C (compound 1 µM) was 88% and 96% and 108%, the viability, T/C (compound 3.16 µM) was 94% and 139% and 114% and the viability, T/C (compound 10 µM) was 109% and 116% and 90.9%. It also gave an IC50 (curve of compound) of over 10000 nM.
